What was measured:
[1] = system: Coniophora puteana (brown rot); test: EN113 decay test of wood composites; assay type: cell-based; conditions: wood composite PF face/pMDI core; preservative loading 0.1% by weight; 12 weeks fungal decay exposure; eight samples
Description: Wood composite samples were made having a phenol-formaldehyde (PF) resin face and a diphenylmethanediisocyanate (pMDI) resin core. Some of the samples included a combination of the zinc borate, 2ZnO·3B2O3·3.5H2O, (ZB) and disodium octaborate tetrahydrate (DOT) and others contained ZB alone, while still others contained no wood preservative. The ZB/DOT combination formulations contained 60% ZB by weight and 40% DOT. The preservative compositions were added to the wood composite samples at a loading of 0.1% by weight of the wood composite. The samples were cut to 50 mm×25 mm×20 mm before testing. A total of eight samples from each treatment set were subjected to decay testing.
A total of eight samples from each treatment set were tested according to a standard European decay test protocol known as EN113. The samples were first sealed in plastic bags and gamma irradiated at a level of at a level of 2.0 Mrad using a ^60Co source to ensure sterilization prior to mono-culture decay testing.
Aqueous solutions of 2.0% malt and 2.0% agar were prepared and then autoclaved at 120° C. for 30 minutes. […]
The decay results are shown in Table 1, expressed as average percent weight loss of the wood composite samples after 12 weeks of fungal decay exposure.

mold [2] = test: Mold exposure test on aspen OSB, modified ASTM D 3273-94 (Example 2); assay type: cell-based; conditions: for Mold Formation Rating: 4 weeks; for Mold Formation Rating, Average: average over boards and soluble borates
Description: The effectiveness of the mixed solubility wood preservatives of this invention against mold growth was tested on samples of aspen oriented strand board (OSB). Two OSB formulations were evaluated. One type was bonded with pMDI resin at a 6% loading. The other type was bonded with a PF resin face and a pMDI resin core. The OSB samples contained either a mixed solubility borate preservative formulation or a low solubility borate alone, or no preservative in the case of the control samples. The low solubility borate in all cases was zinc borate 2:3:3.5. The two different high solubility borates were tested—disodium octaborate tetrahydrate (DOT) and boric oxide (B2O3), also known as anhydrous boric acid (ABA). The weight ratio of low solubility borate to high solubility borate in the mixed solubility samples was either 80/20 or 60/40. Two different target loadings of preservative in the OSB samples were tested—0.18% and 0.88% by weight.
(§1) Mold exposure testing was carried out using a modified version of the ASTM: D 3273-94 procedure. Exposure of the OSB samples to mold was done in an experimental chamber consisting of a 597 mm×311 mm×413 mm plastic container tilted on its side to give a 45° roof angle to prevent condensate dripping on the samples and filled with 2-3 inches of water. The water was heated to 32.5° C. (±1° C.), using a thermostatically controlled heating coil. A 292 mm×394 mm×133 mm plastic bowl was filled to within 3 inches from the top with a mixture of damp potting soil and unsterile soil collected from outdoors to provide an inoculum source for mold. The bowl was floated in the plastic container. The boards were placed on a plastic mesh above the inoculum source. The blocks were inverted at one week intervals. The test ran for a duration of 4 weeks.
After the four week mold exposure, the samples were examined visually and rated for mold formation on a scale of 0 to 4, with 0 representing no mold formation (i.e. complete control) and 4 representing complete coverage or overgrowth of the sample by mold. […] With regard to the ratio of high solubility borate to low solubility borate, the samples containing 40% soluble borate (i.e. 60% zinc borate) provided a significant improvement over the samples containing 0% soluble borate (i.e. 100% zinc borate), on average.

mold [3] = test: Mold exposure test on aspen OSB with water repellant (Example 3); assay type: cell-based; conditions: scale 0-4; for Mold Formation Rating: 4 weeks, OSB pMDI 6%
Description: as §1
Another set of mold tests similar to Example 2 was carried out. Test samples consisted of Aspen OSB bonded with pMDI resin at a 6% loading. The OSB samples were treated with a hydrophobic resin 1% EW-58S, manufactured by Borden, which served as a water repellant. The preservative treated OSB samples contained either zinc borate alone or a mixture of zinc borate and DOT, at a 60/40 weight ratio. Target loadings of preservative were 0.05, 0.10 and 0.20% by weight in the OSB samples . The OSB test samples were cut into 76 mm×102 mm panels for use in the mold testing. Mold exposure testing was carried out using essentially the same method described in Example 2, except that the water was heated to 30.5° C. (±1° C.). The relative humidity within the environmental chamber was monitored and maintained at .95 to 99% with an average temperature of 27 to 30° C.
After the four week mold exposure, the samples were examined visually and rated for mold growth on a scale of 0 to 4, as in Example 2.

[4] = system: Formosan subterranean termite (Coptotermes formosanus Shiraki); test: Termite field test of aspen waferboards, Hilo; assay type: in vivo; conditions: 0.88% preservative
From the text: The performance of mixed solubility borate preservatives against termites was investigated in a study using aspen waferboards bonded with either 100% pMDI (in both face and core) or with Phenol Formaldehyde (PF) in the face and pMDI in the core. The boards were made with a target loading of 0.88% preservative utilizing the formulations (blends) described in Table 4. The borates were incorporated into the board by mixing the preservative formulations with the aspen wafers in a blender before addition of the adhesive and wax. Composite board specimens were exposed to the Formosan subterranean termite (Coptotermes formosanus Shiraki) at a field test site in Hilo, Hi. The specimens, along with untreated aspen ‘feeder’ stakes, are placed in a horizontal array on hollow core concrete blocks approximately 10 cm thick. In addition to surrounding the test specimens, the untreated feeder stakes are also driven into the ground in an effort to increase the termite pressure on the test specimens. The assembly is then covered with a wooden box to prevent direct contact with rain. This is a severe test format conducted using a very termite susceptible wood species (aspen).
After 3, 9 and 15 months exposure the boards were rated visually on a scale of 0 to 10 . A rating of 10 indicates the sample was in perfect condition, while a 0 rating means the sample was essentially destroyed. Each result consisted of an average rating from the inspection of 10 separate samples (10 replicates).

In the case of 2ZnO·3B2O3·3.5H2O [ZB only], the “Average % Wt. Loss” value [1] is reported as 15.98%, the “Mold Formation Rating” value (mold [2]; scale 0 (no mold) to 4 (complete coverage), target borate loading 0.18 % BAE, board pMDI-6%, measured at Edges) is reported as 2.00 and the “Mold Formation Rating” value (mold [2]; scale 0-4, target borate loading 0.18 % BAE, board PF-pMDI, measured at Edges) is reported as 2.00. For the same substance, the “Mold Formation Rating” value (mold [2]; scale 0-4, target borate loading 0.18 % BAE, board PF-pMDI, measured at Faces) was 1.25, the “Mold Formation Rating” value (mold [2]; scale 0-4, target borate loading 0.18 % BAE, board pMDI-6%, measured at Faces) was 0.75 and the “Mold Formation Rating” value (mold [2]; scale 0-4, target borate loading 0.88 % BAE, board PF-pMDI, measured at Edges) was 1.50. The “Mold Formation Rating” value (mold [2]; scale 0-4, target borate loading 0.88 % BAE, board PF-pMDI, measured at Faces) was 0.75, the “Mold Formation Rating” value (mold [2]; scale 0-4, target borate loading 0.88 % BAE, board pMDI-6%, measured at Edges) was 0.75 and the “Mold Formation Rating” value (mold [2]; scale 0-4, target borate loading 0.88 % BAE, board pMDI-6%, measured at Faces) was 0.00. The “Mold Formation Rating, Average” value (mold [2]; scale 0-4, 0.18 % BAE, Edges) was 2.00, the “Mold Formation Rating, Average” value (mold [2]; scale 0-4, 0.18 % BAE, Faces) was 1.00 and the “Mold Formation Rating, Average” value (mold [2]; scale 0-4, 0.88 % BAE, Edges) was 1.13. For the same substance, the “Mold Formation Rating, Average” value (mold [2]; scale 0-4, 0.88 % BAE, Faces) was 0.38, the “Mold Formation Rating” value (mold [3]; target borate loading 0.05 % BAE, Edges) was 1.00 and the “Mold Formation Rating” value (mold [3]; target borate loading 0.05 % BAE, Faces) was 1.00. For the same substance, the “Mold Formation Rating” value (mold [3]; target borate loading 0.10 % BAE, Edges) was 3.33, the “Mold Formation Rating” value (mold [3]; target borate loading 0.10 % BAE, Faces) was 2.67 and the “Mold Formation Rating” value (mold [3]; target borate loading 0.20 % BAE, Edges) was 2.33. For the same substance, the “Mold Formation Rating” value (mold [3]; target borate loading 0.20 % BAE, Faces) was 1.00, the “Mold Formation Rating, Average” value (mold [3]; average over loadings 0.05-0.20 % BAE, Faces and Edges) was 1.89 and the “Termites Ratings” value ([4]; scale 0 (destroyed) to 10 (perfect), board pMDI, 3 mos. exposure, average of 10 replicates) was 10. For the same substance, the “Termites Ratings” value ([4]; scale 0-10, board PF/pMDI, 3 mos. exposure) was 10, the “Termites Ratings” value ([4]; scale 0-10, board PF/pMDI, 9 mos. exposure) was 9.5 and the “Termites Ratings” value ([4]; scale 0-10, board PF/pMDI, 15 mos. exposure) was 9.7. For the same substance, the “Termites Ratings” value ([4]; scale 0-10, board pMDI, 9 mos. exposure) was 9.8 and the “Termites Ratings” value ([4]; scale 0-10, board pMDI, 15 mos. exposure) was 9.9.
